Measurements: US10065990B2, “Cyclic peptide compound, and preparation method, pharmaceutical composition and use thereof” (HANGZHOU GUANYU BIO-MEDICAL CO., LTD, priority 2013, dated 2018)
Read-outs that look alike come from different tables or passages of the source.

Legend:
HDAC7 = biological target: T1, HDAC7 (Homo sapiens, UniProt Q8WUI4); assay: HDAC biochemical activity measurement (fluorescent substrate deacetylation);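 further: fluorogenic deacetylation assay using acetyl-lysine substrate at 20 µM, enzyme and compound incubated 30 min at 37 °C, then developer added, fluorescence read at 360/460 nm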; conditions: HDAC7; 37° C. 30 minutes
T1 sequence (Q8WUI4 1-952): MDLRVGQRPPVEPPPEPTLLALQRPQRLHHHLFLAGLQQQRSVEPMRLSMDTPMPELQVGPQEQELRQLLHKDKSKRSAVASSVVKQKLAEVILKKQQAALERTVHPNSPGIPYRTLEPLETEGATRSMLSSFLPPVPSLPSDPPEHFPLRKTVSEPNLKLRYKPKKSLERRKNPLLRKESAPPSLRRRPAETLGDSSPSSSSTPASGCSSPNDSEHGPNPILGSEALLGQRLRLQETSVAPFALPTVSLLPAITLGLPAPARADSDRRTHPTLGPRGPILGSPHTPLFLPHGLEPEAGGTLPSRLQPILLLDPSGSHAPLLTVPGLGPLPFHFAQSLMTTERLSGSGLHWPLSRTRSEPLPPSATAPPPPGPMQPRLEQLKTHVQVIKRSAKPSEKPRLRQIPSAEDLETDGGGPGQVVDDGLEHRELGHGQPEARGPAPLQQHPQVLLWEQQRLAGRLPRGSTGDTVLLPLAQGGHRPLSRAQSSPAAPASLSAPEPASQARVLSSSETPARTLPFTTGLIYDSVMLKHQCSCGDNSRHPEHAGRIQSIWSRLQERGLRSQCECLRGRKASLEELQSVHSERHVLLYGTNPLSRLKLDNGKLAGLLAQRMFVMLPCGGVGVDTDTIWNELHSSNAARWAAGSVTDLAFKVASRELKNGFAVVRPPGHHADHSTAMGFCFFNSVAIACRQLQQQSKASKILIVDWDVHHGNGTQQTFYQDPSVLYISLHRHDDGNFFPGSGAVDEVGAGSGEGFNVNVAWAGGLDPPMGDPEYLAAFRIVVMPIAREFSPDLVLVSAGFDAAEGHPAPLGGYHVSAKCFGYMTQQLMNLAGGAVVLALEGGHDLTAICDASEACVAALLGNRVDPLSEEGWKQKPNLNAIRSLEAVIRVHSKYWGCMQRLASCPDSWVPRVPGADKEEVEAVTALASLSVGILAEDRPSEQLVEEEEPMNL

[1] = test system: A549 (human lung cancer cells); assay: MTT cancer cell growth inhibition; format: cell-based; conditions: Homo sapiens, A549, 72 h, MTT, 72 hours incubation, read-out: GI50 A54
How it was run: (§1)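 Following overnight attachment of 1500 cells per well, each line was exposed to test drug (final 10^−5 to 10^−10 M) for 72 h in a humidified 37° C., 5% CO2 incubator. Four hours with MTT, DMSO dissolution of formazan, and a 570 nm reading yielded viability data used for GI50.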

[2] = test system: BGC-823 (human gastric cancer cells); assay: MTT cancer cell growth inhibition; format: cell-based; conditions: Homo sapiens, BGC-823, 72 h, MTT, 72 hours incubation, read-out: GI50 BG
How it was run: as §1

[3] = test system: Bel-7402 (human hepatoma cells); assay: MTT cancer cell growth inhibition; format: cell-based; conditions: Homo sapiens, Bel-7402, 72 h, MTT, 72 hours incubation, Bel-7402 cells; read-out: GI50 Bel-7402
How it was run: as §1

[4] = test system: DU145 (human prostate cancer cells); assay: MTT cancer cell growth inhibition; format: cell-based; conditions: Homo sapiens, DU-145, 72 h, MTT, 72 hours incubation, read-out: GI50 Du1
How it was run: as §1

[5] = test system: H1975 (non-small cell lung adenocarcinoma); assay: MTT cancer cell growth inhibition; format: cell-based; conditions: Homo sapiens, NCI-H1975, 72 h, MTT, 72 hours incubation, H1975 cells; read-out: GI50 H1975
How it was run: as §1

[6] = test system: HCC827 (human non-small cell lung cancer cells); assay: MTT cancer cell growth inhibition; format: cell-based; conditions: Homo sapiens, HCC827, 72 h, MTT, 72 hours incubation, HCC827 cells; read-out: GI50 HCC827
How it was run: as §1

[7] = test system: HT1080 (human fibrosarcoma cells); assay: MTT cancer cell growth inhibition; format: cell-based; conditions: Homo sapiens, HT-1080, 72 h, MTT, 72 hours incubation, read-out: GI50 HT1
How it was run: as §1

[8] = test system: Hela (human cervical cancer cells); assay: MTT cancer cell growth inhibition; format: cell-based; conditions: Homo sapiens, HeLa, 72 h, MTT, 72 hours incubation, read-out: GI50 Hela
How it was run: as §1

[9] = test system: Huh-7 (human hepatoma cells); assay: MTT cancer cell growth inhibition; format: cell-based; conditions: Homo sapiens, Huh-7, 72 h, MTT, 72 hours incubation, Huh-7 cells; read-out: GI50 Huh-7
How it was run: as §1

[10] = test system: K562 (human leukemia cells); assay: MTT cancer cell growth inhibition; format: cell-based; conditions: Homo sapiens, K562, 72 h, MTT, 72 hours incubation, K562 cells; read-out: GI50 K562
How it was run: as §1

[11] = test system: KBM-5 (human chronic myelogenous leukemia); assay: MTT cancer cell growth inhibition; format: cell-based; conditions: Homo sapiens, KBM5, 72 h, MTT, 72 hours incubation, KBM-5 cells; read-out: GI50 KBM-5
How it was run: as §1

[12] = test system: KBM5-T315I (human chronic myelogenous leukemia); assay: MTT cancer cell growth inhibition; format: cell-based; conditions: Homo sapiens, 72 h, MTT, 72 hours incubation, KBM5-T315I cells; read-out: GI50 KBM5-T315I
How it was run: as §1

[13] = test system: MCF-7 (human breast cancer cells); assay: MTT cancer cell growth inhibition; format: cell-based; conditions: Homo sapiens, MCF7, 72 h, 72 hours incubation, read-out: GI50 MCF
How it was run: as §1

[14] = test system: MDA-MB-231 (breast cancer cells); assay: MTT cancer cell growth inhibition; format: cell-based; conditions: Homo sapiens, MDA-MB-231, 72 h, read-out: GI50 MDA-MB-231, MTT, 72 hours incubation, MDA-MB-231 cells
How it was run: as §1

[15] = test system: MOLT-4 (human acute lymphoblastic leukemia cells); assay: MTT cancer cell growth inhibition; format: cell-based; conditions: Homo sapiens, MOLT-4, 72 h, MTT, 72 hours incubation, read-out: GI50 Mol
How it was run: as §1

[16] = test system: N-87 (human gastric cancer cells); assay: MTT cancer cell growth inhibition; format: cell-based; conditions: Homo sapiens, 72 h, MTT, 72 hours incubation, N-87 cells; read-out: GI50 N-87
How it was run: as §1

[17] = test system: PANC-1 (Pac-1, human pancreatic cancer cells); assay: MTT cancer cell growth inhibition; format: cell-based; conditions: Homo sapiens, PANC-1, 72 h, MTT, 72 hours incubation, read-out: GI50 PAN
How it was run: as §1

[18] = test system: SGC-7901 (human gastric cancer cells); assay: MTT cancer cell growth inhibition; format: cell-based; conditions: Homo sapiens, SGC-7901, 72 h, MTT, 72 hours incubation, SGC-7901 cells; read-out: GI50 SGC-7901
How it was run: as §1

[19] = test system: U937 (human leukemia cells); assay: MTT cancer cell growth inhibition; format: cell-based; conditions: Homo sapiens, U-937, 72 h, MTT, 72 hours incubation, read-out: GI50 U93
How it was run: as §1

[20] = test system: lncap (prostate cancer cells); assay: MTT cancer cell growth inhibition; format: cell-based; conditions: Homo sapiens, LNCaP, 72 h, MTT, 72 hours incubation, read-out: GI50 lnca
How it was run: as §1

Row | IC50 HDAC7 (HDAC7) | GI50 ([1]; A549 cells) [nM] | GI50 ([2]; BGC-823 cells) [nM] | GI50 [3] [nM] | GI50 ([4]; DU145 cells) [nM] | GI50 [5] [nM] | GI50 [6] [nM] | GI50 ([7]; HT1080 cells) [nM] | GI50 ([8]; Hela cells) [nM] | GI50 [9] [nM] | GI50 [10] [nM] | GI50 [11] [nM] | GI50 [12] [nM] | GI50 ([13]; MCF-7 cells) [nM] | GI50 [14] [nM] | GI50 ([15]; MOLT-4 cells) [nM] | GI50 [16] [nM] | GI50 ([17]; PANC-1 cells) [nM] | GI50 [18] [nM] | GI50 ([19]; U937 cells) [nM] | Structure (SMILES) | also measured
1 | no activity | 30 | 10 | 36 | 30 | 41 | 41 | 110 | 40 | 21 | 32 | 45 | 43 | 30 | 38 | 50 | 45 | 80 | 23 | 40 | C/C=C1\NC(=O)c2nc(ccc2SC)CNC(=O)C[C@@H](/C=C/CCSC(=O)CCCCCCC)OC(=O)[C@H](Cc2ccccc2)NC1=O [Compound 189] | GI50 ([20]; lncap cells): 50 nM
2 | no activity | 20 | 30 | 23 | 50 | 35 | 35 | 20 | 20 | 91 | 23 | 26 | 87 | 70 | 83 | 30 | 36 | 30 | 48 | 20 | C/C=C1\NC(=O)c2cc(SC)cc(n2)CNC(=O)C[C@@H](/C=C/CCS)OC(=O)[C@H](CC)NC1=O [Compound 230] | GI50 ([20]; lncap cells): 50 nM
3 | no activity | – | – | 35 | – | 38 | 12 | – | – | 23 | 11 | 11 | 127 | – | 37 | – | 29 | – | 41 | – | C/C=C1\NC(=O)c2nccc(n2)CNC(=O)C[C@@H](/C=C/CCS)OC(=O)[C@H](C)NC1=O [Compound 144] | GI50 [1]: 70 nM; GI50 [2]: 70 nM; GI50 [4]: 60 nM; GI50 [7]: 70 nM; GI50 [8]: 50 nM; GI50 [13]: 60 nM; GI50 [15]: 70 nM; GI50 [17]: 70 nM; GI50 [19]: 70 nM; GI50 [20]: 50 nM
4 | no activity | – | – | 21 | – | 97 | 47 | – | – | 56 | 19 | 23 | 53 | – | 86 | – | 93 | – | 16 | – | C/C=C1\NC(=O)c2ccc(F)c(n2)CCNC(=O)C[C@@H](/C=C/CCSC(C)=O)OC(=O)[C@H](C(C)C)NC1=O [Compound 105] | GI50 [1]: 40 nM; GI50 [2]: 10 nM; GI50 [4]: 30 nM; GI50 [7]: 70 nM; GI50 [8]: 50 nM; GI50 [13]: 20 nM; GI50 [15]: 20 nM; GI50 [17]: 70 nM; GI50 [19]: 50 nM; GI50 [20]: 20 nM
5 | no activity | 40 | 90 | 42 | 50 | 78 | 47 | 40 | 30 | 35 | 81 | 17 | 29 | 80 | 51 | 30 | 27 | 10 | 67 | 30 | C/C=C1\NC(=O)c2cc(SC)cc(n2)CNC(=O)C[C@@H](/C=C/CCSC(C)=O)OC(=O)[C@H](Cc2cccc3ccccc23)NC1=O [Compound 199] | GI50 ([20]; lncap cells): 40 nM
6 | no activity | – | – | 43 | – | 16 | 59 | – | – | 23 | 45 | 63 | 45 | – | 46 | – | 95 | – | 31 | – | C=C1NC(=O)c2cccc(n2)CNC(=O)C[C@@H](/C=C/CCS)OC(=O)[C@H](C(C)C)NC1=O [Compound 131] | GI50 [1]: 50 nM; GI50 [2]: 40 nM; GI50 [4]: 60 nM; GI50 [7]: 80 nM; GI50 [8]: 80 nM; GI50 [13]: 60 nM; GI50 [15]: 80 nM; GI50 [17]: 40 nM; GI50 [19]: 50 nM; GI50 [20]: 80 nM
7 | no activity | 40 | 70 | 21 | 60 | 73 | 55 | 40 | 60 | 24 | 19 | 31 | 28 | 70 | 85 | 30 | 31 | 70 | 71 | 40 | C=C1NC(=O)c2cc(SC)cc(n2)CNC(=O)C[C@@H](/C=C/CCSC(C)=O)OC(=O)[C@H](C)NC1=O [Compound 211] | GI50 ([20]; lncap cells): 30 nM
